# Measured values published in article PMC5333395, “Assessing histone demethylase inhibitors in cells: lessons learned” (Epigenetics & Chromatin, 2017).
# What was measured:
# KDM2A = molecular target: T1, KDM2A (Homo sapiens, UniProt Q9Y2K7); set-up: method as in PMID 26741168; details: RapidFire under low iron condition (0.2 mM); previously reported; read-out: KDM2A IC50, in vitro, RapidFire; cited from earlier work
# T1 sequence (Q9Y2K7 1-1162): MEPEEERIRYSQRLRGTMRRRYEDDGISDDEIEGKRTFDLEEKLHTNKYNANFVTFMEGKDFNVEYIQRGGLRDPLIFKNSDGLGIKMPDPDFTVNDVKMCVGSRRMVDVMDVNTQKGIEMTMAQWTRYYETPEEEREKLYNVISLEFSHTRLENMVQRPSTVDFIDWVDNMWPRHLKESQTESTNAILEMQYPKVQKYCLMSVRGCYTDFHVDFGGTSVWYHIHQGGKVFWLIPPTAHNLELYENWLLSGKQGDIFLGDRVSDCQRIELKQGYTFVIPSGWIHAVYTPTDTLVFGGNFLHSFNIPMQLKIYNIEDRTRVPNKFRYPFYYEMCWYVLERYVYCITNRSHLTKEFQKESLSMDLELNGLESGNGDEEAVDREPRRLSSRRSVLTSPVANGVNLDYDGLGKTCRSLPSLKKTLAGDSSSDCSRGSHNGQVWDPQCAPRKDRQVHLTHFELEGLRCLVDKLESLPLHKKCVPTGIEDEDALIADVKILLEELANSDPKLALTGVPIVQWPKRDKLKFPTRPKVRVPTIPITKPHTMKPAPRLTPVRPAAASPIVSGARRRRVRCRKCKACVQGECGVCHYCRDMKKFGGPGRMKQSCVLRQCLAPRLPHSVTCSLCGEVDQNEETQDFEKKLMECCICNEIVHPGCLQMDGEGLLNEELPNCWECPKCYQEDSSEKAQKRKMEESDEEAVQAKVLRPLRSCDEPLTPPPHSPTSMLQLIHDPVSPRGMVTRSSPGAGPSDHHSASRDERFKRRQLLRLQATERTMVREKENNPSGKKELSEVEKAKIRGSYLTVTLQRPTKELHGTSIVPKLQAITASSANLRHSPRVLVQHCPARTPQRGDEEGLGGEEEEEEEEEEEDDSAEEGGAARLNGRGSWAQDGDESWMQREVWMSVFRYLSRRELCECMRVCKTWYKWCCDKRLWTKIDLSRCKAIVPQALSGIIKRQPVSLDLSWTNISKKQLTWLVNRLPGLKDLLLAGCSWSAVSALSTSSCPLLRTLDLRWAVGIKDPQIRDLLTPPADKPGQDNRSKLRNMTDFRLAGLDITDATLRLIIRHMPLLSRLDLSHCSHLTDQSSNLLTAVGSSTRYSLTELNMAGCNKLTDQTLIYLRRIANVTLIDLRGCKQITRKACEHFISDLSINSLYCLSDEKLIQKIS
# KDM5D = KDM5D (Homo sapiens, UniProt Q9BY66); assay: AlphaScreen in vitro demethylase assay; type: biochemical; details: IC50 ± SD (number of replicates)
# Procedure: IC50 values were determined as previously described. The following amendments were made to the protocol for carrying out 2-OG competition assays.
# KDM4B = molecular target: T2, KDM4B (Homo sapiens, UniProt O94953); assay: High-content immunofluorescence (IF) assay, overexpressed full-length FLAG-tagged KDM in HeLa cells; type: cell-based; details: HeLa cells overexpressing WT KDM4B, H3K9me3 mark, 24 h; read-out: KDM4B, in cells, EC50 by IF assay (head: IC50)
# T2 sequence (O94953 1-1096): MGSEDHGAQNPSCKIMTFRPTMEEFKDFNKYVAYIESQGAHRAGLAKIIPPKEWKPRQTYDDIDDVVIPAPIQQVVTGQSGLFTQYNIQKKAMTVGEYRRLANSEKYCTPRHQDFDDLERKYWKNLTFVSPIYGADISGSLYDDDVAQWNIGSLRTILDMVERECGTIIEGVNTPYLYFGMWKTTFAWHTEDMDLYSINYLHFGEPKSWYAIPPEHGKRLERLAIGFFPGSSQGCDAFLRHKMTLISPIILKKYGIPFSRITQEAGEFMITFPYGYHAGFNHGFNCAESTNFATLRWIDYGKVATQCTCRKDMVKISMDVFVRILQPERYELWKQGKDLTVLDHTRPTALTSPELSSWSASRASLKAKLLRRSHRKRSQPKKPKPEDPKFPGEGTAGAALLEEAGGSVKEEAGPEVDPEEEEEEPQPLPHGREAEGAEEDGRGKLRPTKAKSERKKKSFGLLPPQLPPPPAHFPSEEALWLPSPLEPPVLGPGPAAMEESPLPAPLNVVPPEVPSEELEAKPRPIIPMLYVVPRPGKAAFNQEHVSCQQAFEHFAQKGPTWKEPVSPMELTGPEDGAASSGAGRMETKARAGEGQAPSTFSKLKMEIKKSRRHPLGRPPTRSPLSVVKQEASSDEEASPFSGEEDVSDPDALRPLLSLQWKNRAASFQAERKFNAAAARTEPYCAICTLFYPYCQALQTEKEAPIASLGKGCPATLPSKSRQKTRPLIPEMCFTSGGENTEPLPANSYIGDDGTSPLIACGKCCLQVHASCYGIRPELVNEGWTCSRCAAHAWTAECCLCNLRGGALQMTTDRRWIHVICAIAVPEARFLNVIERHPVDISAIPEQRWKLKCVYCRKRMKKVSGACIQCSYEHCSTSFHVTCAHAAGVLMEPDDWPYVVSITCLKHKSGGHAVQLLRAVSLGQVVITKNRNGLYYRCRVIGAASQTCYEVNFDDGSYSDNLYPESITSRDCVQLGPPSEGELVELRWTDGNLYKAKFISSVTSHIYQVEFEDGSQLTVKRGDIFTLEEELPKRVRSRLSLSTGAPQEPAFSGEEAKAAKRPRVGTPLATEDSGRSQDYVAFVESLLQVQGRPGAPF
# Procedure: HeLa cells (ATCC) were cultured at 37 °C and 5% CO2 in Minimal Essential Media—Eagle (Sigma-Aldrich, UK) supplemented with 10% heat-inactivated foetal calf serum (FCS) (Gibco, UK), and 1% L-glutaMAX (Gibco, UK) in T75 flasks (Sarstedt, UK) and passaged regularly with TrypLE (Life Technologies, UK) before cells reached confluence. On day 0, 7000 cells per well were plated on a 96-well clear bottom CellCarrier plate (PerkinElmer, UK). The next day the cells were transfected with Lipofectamine 3000 (ThermoFisher Scientific, UK) following the manufacturer’s instructions. Briefly, 0.1 µg of plasmid DNA (encoding for the respective demethylase) and 0.15 µL of Lipofectamine 3000 were diluted in separate tubes containing 5 µL OptiMEM. 0.15 µL of P3000 was added to the tube with the DNA. The two solutions were then mixed gently and allowed to incubate for 5 min at room temperature. Next, the DNA-lipid complex was added to the cells for 4 h at 37 °C and 5% CO2.
# Compound dilutions were made in a 96-well PCR plate (Starlab, UK). The culture medium was supplemented with 0.4% DMSO so that the solvent concentration was maintained throughout. Compounds were serially diluted at a 1:2 or 1:3 dilution ratio. Next, the cell culture plate was removed from the incubator and the medium was gently aspirated and replaced with the fresh medium containing diluted compounds.
# Then cells were rinsed once with PBS and blocked for 30 min at room temperature using 3% v/v foetal calf serum diluted in PBS.
# Sequence of KDM5D (Q9BY66 whole entry): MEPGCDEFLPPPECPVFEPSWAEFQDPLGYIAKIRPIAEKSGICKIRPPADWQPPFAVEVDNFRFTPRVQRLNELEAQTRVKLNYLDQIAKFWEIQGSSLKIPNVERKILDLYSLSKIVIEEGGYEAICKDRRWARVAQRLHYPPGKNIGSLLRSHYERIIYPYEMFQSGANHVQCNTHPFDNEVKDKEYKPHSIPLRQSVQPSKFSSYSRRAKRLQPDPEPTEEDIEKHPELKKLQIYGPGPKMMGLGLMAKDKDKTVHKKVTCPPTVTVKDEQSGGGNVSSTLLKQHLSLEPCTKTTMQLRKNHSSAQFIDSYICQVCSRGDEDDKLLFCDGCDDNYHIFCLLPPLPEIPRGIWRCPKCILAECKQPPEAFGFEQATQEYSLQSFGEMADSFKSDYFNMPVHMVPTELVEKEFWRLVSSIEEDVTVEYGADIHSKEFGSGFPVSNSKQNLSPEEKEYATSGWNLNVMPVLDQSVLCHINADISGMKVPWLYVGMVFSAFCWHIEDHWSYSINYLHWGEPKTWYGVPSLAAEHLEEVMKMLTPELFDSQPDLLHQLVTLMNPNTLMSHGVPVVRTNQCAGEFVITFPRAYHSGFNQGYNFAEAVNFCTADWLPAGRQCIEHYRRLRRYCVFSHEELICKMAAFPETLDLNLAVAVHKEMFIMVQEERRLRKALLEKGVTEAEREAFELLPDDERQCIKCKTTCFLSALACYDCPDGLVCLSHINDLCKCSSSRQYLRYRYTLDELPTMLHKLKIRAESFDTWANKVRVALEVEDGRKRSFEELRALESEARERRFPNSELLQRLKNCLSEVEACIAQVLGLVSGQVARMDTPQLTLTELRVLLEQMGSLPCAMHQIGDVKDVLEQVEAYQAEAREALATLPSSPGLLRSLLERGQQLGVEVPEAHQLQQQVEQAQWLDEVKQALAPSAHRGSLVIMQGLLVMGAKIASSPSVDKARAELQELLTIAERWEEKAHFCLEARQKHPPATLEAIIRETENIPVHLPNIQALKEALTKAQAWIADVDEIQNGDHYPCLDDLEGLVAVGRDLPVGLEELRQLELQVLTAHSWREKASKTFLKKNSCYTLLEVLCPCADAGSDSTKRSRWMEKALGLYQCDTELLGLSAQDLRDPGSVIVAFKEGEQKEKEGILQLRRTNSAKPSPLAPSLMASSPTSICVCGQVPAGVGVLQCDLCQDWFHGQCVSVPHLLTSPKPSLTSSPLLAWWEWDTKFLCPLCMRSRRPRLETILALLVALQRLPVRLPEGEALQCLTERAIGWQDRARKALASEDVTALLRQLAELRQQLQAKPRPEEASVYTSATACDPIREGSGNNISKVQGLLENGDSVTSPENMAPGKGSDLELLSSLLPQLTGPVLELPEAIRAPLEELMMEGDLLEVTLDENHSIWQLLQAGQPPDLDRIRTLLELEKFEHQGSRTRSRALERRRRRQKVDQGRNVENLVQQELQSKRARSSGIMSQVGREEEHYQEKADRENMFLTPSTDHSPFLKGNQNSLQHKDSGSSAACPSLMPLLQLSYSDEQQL
Compound,EC50 (KDM4B) [nM],other results
Clc1ccc(N/N=C(\c2ccccc2)c2ccccn2)nc1 [JIB-04 E],,IC50 (KDM2A): 1200 ± 10 nM
CCN(CCN(C)C)C(=O)CNCc1cc(C(=O)O)ccn1 [KDOAM-20],,IC50 (KDM5D): 19 ± 4 nM
CCOC(=O)c1ccnc(CNCC(=O)N(CC)CCN(C)C)c1 [KDOAM-21],10000,
CCN(CCN(C)C)C(=O)CNCc1cncc(C(N)=O)c1 [KDOAM-32],> 100000,
